Measurements from US20070265164A1, “Active Substances for Increasing Pathogenic Defense in Plants and Methods for the Detection Thereof” (Bayer Cropscience GmbH, priority 2004, published 2007).

How the values were obtained:
Format in all cases: in vivo
Design in all cases: fold induction: dose or concentration left out as unconfirmed
[1] = tested on: Contig2326_s_at, 12-oxophytodienoic acid reductase; assay: GEP, barley DNA chip, probe set 1.18; conditions: Hordeum vulgare, topical, read-out: Expression value, 1.18 Contig2326_s_at
Description: (§1) Barley plants (cv. Baronesse) were grown in compost-filled pots (diameter: 10 cm) for 10 days in a controlled-environment cabinet under defined light, humidity and temperature conditions (white light, 70% atmospheric humidity, 24° C.). At the time of spray application, the seedlings were approximately 15 cm in size. The test substances selected in this example were molecules which differ markedly in their structure and which have a well documented pronounced safener effect, and other molecules which are known from the literature to have an effect on plant stress and pathogen tolerance (Table 1). The substances were prepared as stock solutions in DMSO (dimethyl sulfoxide) at c=10 mg/ml). This was used for preparing dilutions in water supplemented with 0.2% Agrotin (comprises polyvinyl alcohol, silicones, polysaccharides and pH regulators, manufacturer: Bayer CropScience AG, Monheim, Germany), as wetter, to give the application rates shown in the table. The amount of liquid for the spray application was 800 μl per pot, corresponding to 800 l/ha. For each 800 μl of spray mixture, 16 μl of EC premix: diacetone alcohol=1:6 were additionally added as formulation auxiliaries. The substances listed in Table 1 were applied to the leaves by means of a pneumatic spray pistol. Each substance was sprayed as 2 dosages, and all experiments were carried out as replicates (2 pots per substance). Sprayings with blank formulation without active ingredient were carried out as controls. After 6 hours, the leaves were harvested, frozen in liquid nitrogen and stored at −80° C. until further use. The labeled RNA probes for the DNA chip hybridization were prepared as described in the protocols (Expression Analysis, Technical Manual) from Affymetrix (Affymetrix Inc., 3380 Central Expressway, Santa Clara, Calif., USA). First, total RNA was isolated from in each case 500 mg of the harvested leaves. In each case 10 μg of total RNA was used for the first-strand and second-strand cDNA synthesis. The cDNA was amplified with T7 polymerase and simultaneously labeled with biotin-UTP. In each case, 20 μg of this biotinylated cDNA was employed for the hybridization of the barley genome array (Gene Chip Barleyl, order No.: 511012) from Affymetrix. This DNA microarray comprises DNA sequences of 22 840 genes which are composed of a total of 400 000 EST sequences. Thereafter, the DNA microarrays were washed in the Affymetrix Fluidics Station, stained with streptavidin/phycoerythrin (Molecular Probes, P/N S-866) and scanned with the matching Agilent Laser Scanner (Agilent Gene Array Scanner). The fluorescent data obtained were analyzed with the software Microarray Suite 5 from Affymetrix. After the quality had been checked, all DNA chip analyses were stored in a database. To determine the relative expression values for genes (induction factors, repression factors), test and control chips were compared with each other, and the scoring function set by the Affymetrix software was used as the basis. The 2 biological replications of one experiment were compared in each case with 2 control chips (blank formulation), and the 4 expression values obtained for each gene were used for calculating the median. These medians are shown in the results tables as induction factors. Similarity comparisons of expression profiles from different experiments and cluster analyses were carried out using the software GeneMaths 1.5 from Applied Maths (Applied Maths, Keistraat 120, 9830 Sint-Martens-Latem, Belgium).
(§2) Gene groups from specific metabolic pathways and signal transduction chains were put together by key word search in the annotations, of the genes, which were also provided by Affymetrix, and by Blast analyses (homology comparisons) of the DNA target sequences, i.e. of the positive sequence (identified on the basis of a modified expression profile) identified on the DNA chip, using gene sequences from other organisms, preferably plant organisms, with characterized functions. […]

[2] = tested on: Contig8905_at, Xytanase inhibitor protein; assay: GEP, barley DNA chip, probe set 3.1; conditions: Hordeum vulgare, topical, read-out: Expression value, 3.1 Contig8905_at
Description: as §1, §2

[3] = tested on: Contig2992_s_at, Chitinase (EC 3.2.1.14); assay: GEP, barley DNA chip, probe set 5.2; conditions: Hordeum vulgare, topical, read-out: Expression value, 5.2 Contig2992_s_at
Description: as §1, §2

[4] = tested on: Contig1737_at, Probable lipoxygenase; assay: GEP, barley DNA chip, probe set 1.15; conditions: Hordeum vulgare, topical, read-out: Expression value, 1.15 Contig1737_at
Description: as §1, §2

[5] = tested on: Contig88_x_at, Putative proteinase inhibitor; assay: GEP, barley DNA chip, probe set 2.3; conditions: Hordeum vulgare, topical, read-out: Expression value, 2.3 Contig88_x_at
Description: as §1, §2

[6] = tested on: Contig 4986_at, Allene oxide cyclase; assay: GEP, barley DNA chip, probe set 1.5; conditions: Hordeum vulgare, topical, read-out: Expression value, 1.5 Contig 4986_at
Description: as §1, §2

[7] = tested on: Contig34_s_at, Putative proteinase inhibitor; assay: GEP, barley DNA chip, probe set 2.2; conditions: Hordeum vulgare, topical, read-out: Expression value, 2.2 Contig34_s_at
Description: as §1, §2

[8] = tested on: Contig1736_at, Lipoxygenase 1 (EC 1.13.11.12); assay: GEP, barley DNA chip, probe set 1.10; conditions: Hordeum vulgare, read-out: Expression value, 1.10 Contig1736_at
Description: as §1, §2

[9] = tested on: Contig2305_at, Methyljasmonate inducible lipoxygenase; assay: GEP, barley DNA chip, probe set 1.14; conditions: Hordeum vulgare, topical, read-out: Expression value, 1.14 Contig2305_at
Description: as §1, §2

[10] = tested on: HI02E21u_s_at, Lipoxygenase (EC 1.13.11.12); assay: GEP, barley DNA chip, probe set 1.2; conditions: Hordeum vulgare, topical, read-out: Expression value, 1.2 HI02E21u_s_at
Description: as §1, §2

[11] = tested on: Contig15_a_at, GDSL-motif lipase/hydrolase-like protein; assay: GEP, barley DNA chip, probe set 1.9; conditions: Hordeum vulgare, topical, read-out: Expression value, 1.9 Contig15_a_at
Description: as §1, §2

[12] = tested on: Contig6194_a_at, 12-oxophytodienoic acid reductase; assay: GEP, barley DNA chip, probe set 1.7; conditions: Hordeum vulgare, topical, read-out: Expression value, 1.7 Contig6194_a_at
Description: as §1, §2

[13] = tested on: Contig2330_x_at, 12-oxophytodienoic acid reductase; assay: GEP, barley DNA chip, probe set 1.19; conditions: Hordeum vulgare, topical, read-out: Expression value, 1.19 Contig2330_x_at
Description: as §1, §2

[14] = barley leaves 6 h after spray application, rates of Table 1 (S7 500), median induction factor vs control

O=C(O)c1cc(Cl)nc(Cl)c1 [S9]
fold induction at 150 g/ha ([1]; 6 h): 1 | fold induction at 150 g/ha ([2]; 6 h): 2.53 | fold induction at 150 g/ha ([3]; 6 h): 2.14 | fold induction at 150 g/ha ([4]; 6 h): 1 | fold induction at 150 g/ha ([5]; 6 h): 4.59 | fold induction at 150 g/ha ([6]; 6 h): 1 | fold induction at 150 g/ha ([7]; 6 h): 1 | fold induction at 150 g/ha ([8]; 6 h): 1 | fold induction at 150 g/ha ([9]; 6 h): 12.6 | fold induction at 150 g/ha ([10]; 6 h): 3.03 | fold induction at 150 g/ha ([11]; 6 h): 1 | fold induction at 150 g/ha ([12]; 6 h): 1 | fold induction at 150 g/ha ([13]; 6 h): 1

O=C(O)c1cc(Cl)cc(Cl)c1O [S10]
fold induction [1, 14]: 1 | fold induction [2, 14]: 1 | fold induction [3, 14]: 1 | fold induction [4, 14]: 1 | fold induction [5, 14]: 4.41 | fold induction [6, 14]: 1 | fold induction [7, 14]: 2.08 | fold induction [8, 14]: 1 | fold induction [9, 14]: 18.1 | fold induction [10, 14]: 4.66 | fold induction [11, 14]: 1 | fold induction [12, 14]: 1 | fold induction [13, 14]: 1
